{"source": "patent US20210106703A1", "about": "“RADIOIMMUNOCONJUGATES IN COMBINATION WITH OTHER DRUGS AS TREATMENT AGAINST NHL” (Nordic Nanovector ASA, priority 2017, published 2021)", "experiment_in_all_cases": "Alamar Blue cytotoxicity study", "key": {"[1]": {"test_system": "Granta 519 cells", "assay_type": "cell-based, human", "settings": "for Combination Index (Chou-Talalay): Granta, 120 h; for IC50: Homo sapiens", "description": "(§1) Cells were treated with either Humalutin, olaparib or a combination of both and seeded into 96 well-plates. At each time point after treatment, cells were incubated with Alamar Blue (Thermo Fisher, DALL1100) for 4 hours and fluorescence measurements were performed using a multiplate reader Fluoroskan ascent FL to assess cell proliferation and viability. All experiments were done in duplicates using 2 samples in each experiment. Data were normalized to the untreated controls.\n(§2) Cells were incubated with 0.25, 0.5, 1, 2.5 or 5 μg/ml of Humalutin in cell culture flasks and incubated at 37° C./5% CO2. After 18-20 hours cells were washed and resuspended in fresh medium. Cell bound activity after washing was measured using a calibrated gamma detector (Cobra II auto-gamma detector, Packard Instrument Company, Meriden, Conn., USA). Cell concentration and viability was also measured after washing using Guava ViaCount Cell Dispersal Reagent for Flow Cytometry (Merck GaA, Darmstadt, Germany) and measured in a Guava EasyCyte 12HT (Merck KGaA, Darmstadt, Germany) to determine how well the cells survived the incubation. Cells were seeded in 96 well plates.\n(§3) Cells were seeded in 96 well plates pre-coated with from 1 to 100 μM olaparib in 0.2 ml medium and incubated at 37° C./5% CO2 for 72 hours before the cytotoxic effect was measured using alamar blue cell viability assay.\n(§4) Cells were incubated with either 0, 0.5 μg/ml or 1 μg/ml Humalutin and the same procedure as described before for treatment with humalutin alone and olaparib alone was followed. Concentrations of olaparib used were between 1 and 100 μM.\n(§5) The Chou-Talalay model was used for synergy calculations using the Compusyn software. R (goodness of fit) was calculated for the individual treatments and should be over 0.90 in in vitro culture experiments in order to use the calculated combination index (CI). The CI is an indication of synergy: 0-0.9 is considered synergy. Synergysm grading was used as described in WO2006004917A2. […]\nas §2, with “viability were” for “viability was”, “plates. Alamar blue viability measurements were performed 120 h after seeding.” for “plates.”"}, "[2]": {"test_system": "DOHH2 cells", "assay_type": "cell-based, human", "settings": "for Combination Index (Chou-Talalay): 120 h; for IC50: Homo sapiens", "description": "as §1, §2, §3, §4, §5\nas §2, with “viability were” for “viability was”, “plates. Alamar blue viability measurements were performed 120 h after seeding.” for “plates.”"}, "[3]": {"test_system": "Rec-1 cells", "assay_type": "cell-based", "settings": "Homo sapiens, Rec1; Rec-1, 72 h incubation after seeding", "description": "as §1, §2\n(§6) Cells were seeded in 96 well plates pre-coated with from 1 to 100 μM olaparib in 0.2 ml medium and incubated at 37° C./5% CO2 for 72 hours before the cytotoxic effect was measured using alamar blue cell viability assay. […]"}, "[4]": {"test_system": "WSU-DLCL2 cells", "assay_type": "cell-based", "settings": "Homo sapiens, WSUDLCL2; WSU-DLCL2, 72 h incubation after seeding", "description": "as §1, §2, §6"}, "[5]": {"test_system": "U2932 cells", "assay_type": "cell-based, human", "settings": "for IC50: Homo sapiens", "description": "as §1, §2, §3, §4, §5\nas §2, with “viability were” for “viability was”, “plates. Alamar blue viability measurements were performed 120 h after seeding.” for “plates.”\n(§7) Cells were incubated with either 0 (control), 0.5 μg/ml or 1 μg/ml Humalutin for 18 to 20 hours. Cells were then washed and resuspended in fresh medium."}, "[6]": {"test_system": "SUDHL4 cells", "assay_type": "cell-based, human", "settings": "for IC50: Homo sapiens", "description": "as §2, with “plates. […]” for “plates.”\nCells were treated with either Humalutin, venetoclax or a combination of both and seeded into 96 well-plates. At each time point after treatment, cells were incubated with Alamar Blue (Thermo Fisher, DALL1100) for 4 hours and fluorescence measurements were performed using a multiplate reader Fluoroskan ascent FL to assess cell proliferation and viability. All experiments were done in duplicates using 2 samples in each experiment. Data were normalized to the untreated controls.\nCells were incubated with either 0, 0.5 μg/ml or 1 μg/ml Humalutin and the same procedure as described before for treatment with Humalutin alone and venetoclax alone was followed.\nThe Chou-Talalay model was used for synergy calculations using the Compusyn software. R (goodness of fit) was calculated for the individual treatments and should be over 0.90 in in vitro culture experiments in order to use with confidence the calculated combination index (CI). The CI is an indication of synergy: 0-0.9 is considered synergy. Synergysm grading was used as described in WO2006004917A2.\nas §2, with “viability were” for “viability was”, “plates. Alamar blue viability measurements were performed 120 h after seeding.” for “plates.”\nas §7"}}, "note": "Where two headings read alike, the source gives them in different places."}
{"smiles": "O=C(c1cc(Cc2n[nH]c(=O)c3ccccc23)ccc1F)N1CCN(C(=O)C2CC2)CC1", "note": "[olaparib]", "values": [{"measurement": "Synergism grade by Combination Index, combination with Humalutin", "setting": "[1]; Granta 519, Humalutin 0.5 or 1 μg/ml, 72 h", "value": "very strong synergism"}, {"measurement": "Combination Index (Chou-Talalay)", "setting": "[1]; olaparib dose 2 + Humalutin 1 μg/ml", "value": 1.77}, {"measurement": "Combination Index (Chou-Talalay)", "setting": "[1]; olaparib dose 4 + Humalutin 1 μg/ml", "value": 0.15}, {"measurement": "Combination Index (Chou-Talalay)", "setting": "[1]; olaparib dose 8 + Humalutin 1 μg/ml", "value": 0.06}, {"measurement": "Combination Index (Chou-Talalay)", "setting": "[1]; olaparib dose 10 + Humalutin 1 μg/ml", "value": 0.10}, {"measurement": "IC50", "setting": "[1]; read-out: IC50 at 120 h, Granta 519, 120 h incubation after seeding", "value": 15000, "unit": "nM"}, {"measurement": "IC50", "setting": "[1]; Granta 519, 72 h incubation after seeding, read-out: IC50", "value": 2680, "unit": "nM"}, {"measurement": "Combination Index (Chou-Talalay)", "setting": "[2]; DOHH2, olaparib dose 2 + Humalutin 1 μg/ml", "value": 1.34}, {"measurement": "Combination Index (Chou-Talalay)", "setting": "[2]; DOHH2, olaparib dose 4 + Humalutin 1 μg/ml", "value": 0.64}, {"measurement": "Combination Index (Chou-Talalay)", "setting": "[2]; DOHH2, olaparib dose 8 + Humalutin 1 μg/ml", "value": 0.43}, {"measurement": "Combination Index (Chou-Talalay)", "setting": "[2]; DOHH2, olaparib dose 10 + Humalutin 1 μg/ml", "value": 0.34}, {"measurement": "IC50", "setting": "[2]; DOHH-2, read-out: IC50 at 120 h, DOHH2, 120 h incubation after seeding", "value": 7560, "unit": "nM"}, {"measurement": "IC50", "setting": "[2]; DOHH-2, DOHH2, 72 h incubation after seeding, read-out: IC50", "value": 2060, "unit": "nM"}, {"measurement": "IC50", "setting": "[3]", "value": 721, "unit": "nM"}, {"measurement": "IC50", "setting": "[4]", "value": 1260, "unit": "nM"}, {"measurement": "IC50", "setting": "[5]; read-out: IC50 at 120 h, U2932, 120 h incubation after seeding", "value": 89100, "unit": "nM"}, {"measurement": "IC50", "setting": "[5]; U2932, 72 h incubation after seeding, read-out: IC50", "value": 1930, "unit": "nM"}, {"measurement": "Synergism grade by Combination Index, combination with Humalutin", "setting": "[5]; U2932, Humalutin 0.5 or 1 μg/ml, 72 h", "value": "very strong synergism"}, {"measurement": "IC50", "setting": "[6]; SU-DHL-4, read-out: IC50 at 120 h, SUDHL-4, 120 h incubation after seeding", "value": 22100, "unit": "nM"}, {"measurement": "IC50", "setting": "[6]; SU-DHL-4, SUDHL4, 72 h incubation after seeding, read-out: IC50", "value": 1040, "unit": "nM"}, {"measurement": "Synergism grade by Combination Index, combination with Humalutin", "setting": "[6]; SUDHL4, Humalutin 0.5 or 1 μg/ml, 72 h", "value": "moderate antagonism"}]}
